# Marks after values point to notes of the source that are not given here.
# Columns and labels:
# [1] = system: chicken type II collagen-induced arthritis model in SD rats; experiment: Hindfoot joint score in chicken type II collagen-induced arthritis model in SD rats; assay type: in vivo; set-up: scale not given here; conditions: tail vein, every other day
# Experimental: (§1) After inflamed model was successfully established in SD rats, the SD rats were randomly divided into model control group (12 rats), low, medium dose group (8 rats for each), and high dose group (12 rats) of test drug depending on body weight. Rats in the model control group were administered a blank fat emulsion injection (0.5 mL) by tail vein injection every other day for 7 days; rats in the low and medium dose group of test drug were administered a fat emulsion injection of a compound of Formula A (specifically including Compounds I-VI described hereafter) by tail vein injection every other day for 7 days; rats in the high dose group of test drug were administered a fat emulsion injection of a compound of Formula A by tail vein injection every other day for 14 days. 12 same models in the normal control group were also administered a blank fat emulsion injection. Indexes such as hindfoot joint score, hindfoot joint thickness measurement, TNF-α level in serum and hindfoot joint tissues, hindfoot joint pathological section and the like were used to evaluate efficacy of the drug.
# (§2) Chicken type II collagen was dissolved in 0.1 mol/L acetic acid at 4° C. while stirring so as to be thoroughly dissolved at a concentration of 2 mg/mL The resulting solution was put into a refrigerator at 4° C. overnight. Liquid paraffin and lanolin were mixed at a ratio of 2:1 (volume ratio), and the mixture was autoclaved to prepare an incomplete Freund's adjuvant (IFA). Bacillus Calmette Guerin (BCG) vaccine (60 mg) was inactivated at 80° C. for 1 hour and transferred to a mortar, into which was dropwise added IFA. After being uniformly grinded, the resulting mixture was pushed and sucked repeatedly by double-syringe to prepare a complete Freund's adjuvant (CFA), with the final concentration of BCG vaccine being 2 mg/mL. An equal amount of chicken type II collagen acid solution was mixed with CFA into a stable emulsion (containing 1 mg chicken type II collagen per milliliter).
# (§3) 12 female SD rats were randomly selected from 192 female SD rats as normal control group. The remaining 180 rats was disinfected with iodine tincture. After being deiodinated with 75% ethanol, each of the rat was administered 150 μL collagen emulsion by intradermal injection at the base of the tail, and was administered 100 μL collagen emulsion by intradermal injection at the vola pedis of right hindfoot. Thus, totally 250 μL for each rat was administered. 7 days later, an equal amount of collagen emulsion was intraperitoneal injected as a secondary immune.
# (§4) Animal grouping and administration: inflamed rats were divided into model control group, low, medium and high dose groups of test drug based on body weight.
# (§5) Rats in each group were scored for the hindfoot joint and measured for the thickness of ankle joint before being inflamed. Normal rats were taken blood from orbital venous plexus. The serum of the blood was separated out and cryopreserved at −20° C. to detect cytokines. Rats were scored for joint after being inflamed for 3 days, and were measured for the thickness of ankle joint before administration (on the 19th day since being inflamed), on the 3rd day and 8th day after administration (on the […] since being inflamed). Rats in each group were taken blood from orbital venous plexus when inflammation was severe (on the 23rd day after being inflamed). The serum of the blood was separated out and cryopreserved at −20° C. 8 rats for each group were sacrificed on the 28th day after being inflamed and were taken blood from intraperitoneal vein. The serum of the blood was separated out and was subjected to serological detection (TNF-α). The rest of rats were sacrificed on the 35th day after being inflamed, and histology index detection was carried out
# [2] = system: chicken type II collagen-induced arthritis model in SD rats; experiment: Thickness of right hindfoot ankle joint by microcalliper, collagen-induced arthritis rats; assay type: in vivo
# Experimental: as §1, §2, §3, §4, §5
# TNF-α [3] = experiment: TNF-α level in serum of rats with arthritis (ELISA); assay type: in vivo, SD rats
# Experimental: as §1
# (§6) Compound I used in the present invention was purchased from Xi′ an Libang Pharmaceutical Co., Ltd.; Compounds II-IV were synthesized by the following method. SD rats used in the present invention were purchased from Super-B&K Laboratory Animal Corp. Ltd.; chicken type II collagen was purchased from Sigma, Lot No. 87H5227; rat tumor necrosis factor-α [TNF-α] enzyme-linked immunoassay kit (ELISA) was purchased from Shanghai Biovol Biotech Co., Ltd., Lot No. BV-E12102201.
# as §2, §3, §4
# as §5, with “8 rats for each group were sacrificed on the 28th day after being inflamed and were taken blood from intraperitoneal vein. The serum of the blood was separated out and was subjected to serological detection (TNF-α). The rest of rats were sacrificed on the 35th day after being inflamed, and histology index detection was carried out” left out
# TNF-α [4] = experiment: TNF-α level in hindfoot ankle joint tissue of rats with arthritis; assay type: in vivo, SD rats
# Experimental: as §1, §6, §2, §3, §4
# as §5, with “8 rats for each group were sacrificed on the 28th day after being inflamed and were taken blood from intraperitoneal vein. The serum of the blood was separated out and was subjected to serological detection (TNF-α). The rest of rats were sacrificed on the 35th day after being inflamed, and histology index detection was carried out” left out
# [5] = system: chicken type II collagen-induced arthritis model in SD rats; experiment: Pathological examination score of hindfoot ankle joint of rats with arthritis; assay type: in vivo; conditions: high dose group (1.40-2.16 mg/kg per compound), every other day for 14 days, n=4
# Experimental: as §1, §2
# as §3, with “Thus, totally 250 μL for each rat was administered. 7 days later, an equal amount of collagen emulsion was intraperitoneal injected as a secondary immune.” left out
# Rats in each group were scored for the hindfoot joint and measured for the thickness of ankle joint before being inflamed. […] Rats were scored for joint after being inflamed for 3 days, and were measured for the thickness of ankle joint before administration (on the 19th day since being inflamed), on the 3rd day and 8th day after administration (on the 20th day since being inflamed). […]
# [6] = high dose group, before administration (baseline)
# [7] = high dose group, the 3rd day after administration
# [8] = high dose group, the 8th day after administration
# [9] = low dose group, before administration (baseline)
# [10] = low dose group, the 3rd day after administration
# [11] = low dose group, the 8th day after administration
# [12] = medium dose group, before administration (baseline)
# [13] = medium dose group, the 3rd day after administration
# [14] = medium dose group, the 8th day after administration
substance,measurement,setting,value
"7-α-[9-(4,4,5,5,5-pentafluoropentylsulfinyl)nonyl]-estra-1,3,5(10)-triene-3-hydroxyl-17-undecanoyl [Compound II]",Mean value of hindfoot joint score,[1]; [6],4.7
same,Mean value of hindfoot joint score,[1]; [7],5.3**^#
same,Mean value of hindfoot joint score,[1]; [8],4.9
same,Mean value of hindfoot joint score,[1]; [9],4.9
same,Mean value of hindfoot joint score,[1]; [10],4.8**
same,Mean value of hindfoot joint score,[1]; [11],5.6^#
same,Mean value of hindfoot joint score,[1]; [12],4.9
same,Mean value of hindfoot joint score,[1]; [13],4.9**
same,Mean value of hindfoot joint score,[1]; [14],4.9
same,Thickness of ankle joint (mean ± SD),[2]; [6],6.31 ± 0.52 mm
same,Thickness of ankle joint (mean ± SD),[2]; [7],6.29 ± 0.69 mm
same,Thickness of ankle joint (mean ± SD),[2]; [8],5.83 ± 0.61 mm
same,Thickness of ankle joint (mean ± SD),[2]; [9],6.39 ± 0.68 mm
same,Thickness of ankle joint (mean ± SD),[2]; [10],6.05 ± 0.55 mm
same,Thickness of ankle joint (mean ± SD),[2]; [11],5.98 ± 0.19 mm
same,Thickness of ankle joint (mean ± SD),[2]; [12],5.99 ± 0.57 mm
same,Thickness of ankle joint (mean ± SD),[2]; [13],6.31 ± 0.54 mm
same,Thickness of ankle joint (mean ± SD),[2]; [14],6.31 ± 0.51 mm
same,TNF-α level in serum (mean ± SD),TNF-α [3]; [7],26.72 ± 35.26 pg/mL
same,TNF-α level in serum (mean ± SD),TNF-α [3]; [8],25.65 ± 20.66 pg/mL
same,TNF-α level in serum (mean ± SD),TNF-α [3]; [10],48.28 ± 94.84 pg/mL
same,TNF-α level in serum (mean ± SD),TNF-α [3]; [11],201.35 ± 250.23 pg/mL
same,TNF-α level in serum (mean ± SD),TNF-α [3]; [13],11.00 ± 9.39 pg/mL
same,TNF-α level in serum (mean ± SD),TNF-α [3]; [14],75.12 ± 93.40 pg/mL
same,TNF-α level in ankle (mean ± SD),"TNF-α [4]; left ankle joint, high dose group",14.08 ± 4.09 pg/mL
same,TNF-α level in ankle (mean ± SD),"TNF-α [4]; left ankle joint, low dose group",13.79 ± 4.68 pg/mL
same,TNF-α level in ankle (mean ± SD),"TNF-α [4]; left ankle joint, medium dose group",15.91 ± 5.84 pg/mL
same,TNF-α level in ankle (mean ± SD),"TNF-α [4]; right ankle joint, high dose group",15.11 ± 4.32 pg/mL
same,TNF-α level in ankle (mean ± SD),"TNF-α [4]; right ankle joint, low dose group",13.79 ± 3.26 pg/mL
same,TNF-α level in ankle (mean ± SD),"TNF-α [4]; right ankle joint, medium dose group",12.13 ± 3.35 pg/mL
same,Joint lesion score (mean ± SD),[5],2.50 ± 2.65
